Like-named read-outs stand apart in the source and are kept apart here.
Legend:
Type in all cases: biochemical
Pim2 kinase = Pim2 kinase (Homo sapiens, UniProt Q9P1W9); assay: Pim2 ATP depletion assay;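 further: Luciferase-based luminescent readout of ATP remaining after PIM2 phosphorylates a BAD peptide, final 5 nM enzyme, 4 µM ATP, 10 µM peptide, 2.5% DMSO, run to roughly half ATP consumption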
Pim3 kinase = Pim3 kinase (Homo sapiens, UniProt Q86V86); assay: Pim3 ATP depletion assay
Pim1 kinase = Pim1 kinase (Homo sapiens, UniProt P11309); assay: Pim1 ATP depletion assay; details: Pim1 ATP depletion assay;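 further: Luciferase-luciferin luminescence readout of residual ATP after PIM1 transfers phosphate to a peptide substrate, 40 µM ATP added, reaction run to roughly half ATP consumption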
Chain of Pim1 kinase (P11309 whole entry): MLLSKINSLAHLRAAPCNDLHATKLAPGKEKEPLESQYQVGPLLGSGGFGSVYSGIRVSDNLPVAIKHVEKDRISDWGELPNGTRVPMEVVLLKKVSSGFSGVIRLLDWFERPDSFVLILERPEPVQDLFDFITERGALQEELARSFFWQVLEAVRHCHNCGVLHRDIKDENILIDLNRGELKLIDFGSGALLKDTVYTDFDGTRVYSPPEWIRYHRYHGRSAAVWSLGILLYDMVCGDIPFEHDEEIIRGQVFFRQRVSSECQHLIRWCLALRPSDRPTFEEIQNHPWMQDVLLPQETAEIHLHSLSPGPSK

Chain of Pim2 kinase (Q9P1W9 whole entry): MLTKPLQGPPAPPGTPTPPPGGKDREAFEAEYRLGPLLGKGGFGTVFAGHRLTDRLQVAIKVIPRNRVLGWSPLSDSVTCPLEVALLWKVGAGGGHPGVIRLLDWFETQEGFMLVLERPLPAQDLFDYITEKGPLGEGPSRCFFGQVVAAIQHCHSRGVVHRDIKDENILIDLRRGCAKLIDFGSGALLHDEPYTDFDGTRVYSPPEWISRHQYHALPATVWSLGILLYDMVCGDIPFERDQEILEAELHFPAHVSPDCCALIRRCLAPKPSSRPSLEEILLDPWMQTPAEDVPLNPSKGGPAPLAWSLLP

Cc1cc(F)c(-c2ccc(N)c(C(=O)Nc3cnccc3N3CCC[C@H](N)C3)n2)cc1Cl [Example 478, 3-Amino-6-(5-chloro-2-fluoro-4-methyl-phenyl)-pyridine-2-carboxylic acid (3-amino-3,4,5,6-tetrahydro-2H-[1,4′]bipyridinyl-3′-yl)-amide]
IC50 (Pim2 kinase; read-out: IC50 (μM) PIM2): < 1 µM
IC50 (Pim3 kinase; read-out: IC50 (μM) PIM3): < 1 µM
IC50 (Pim1 kinase; read-out: IC50 (μM) PIM1): < 1 µM

Nc1ccc(-c2ccccc2)nc1C(=O)Nc1cnccc1N1C[C@@H](N)C[C@H](O)C1 [Example 582, 3-Amino-6-phenyl-pyridine-2-carboxylic acid (3-amino-5-hydroxy-3,4,5,6-tetrahydro-2H-[1,4′]bipyridinyl-3′-yl)-amide]
IC50 (Pim2 kinase; read-out: PIM2 IC50): 1 to 10 µM
IC50 (Pim3 kinase; read-out: PIM3 IC50): < 1 µM
IC50 (Pim1 kinase; read-out: PIM1 IC50): < 1 µM

Cc1cc(-c2ccncc2NC(=O)c2nc(-c3cc(C(=O)NC(C)C)ccc3F)ccc2N)cc(N)n1 [Example 539, 3-Amino-6-(2-fluoro-5-isopropylcarbamoyl-phenyl)-pyridine-2-carboxylic acid (2′-amino-6′-methyl-[4,4′]bi-pyridinyl-3-yl)-amide]
IC50 (Pim2 kinase; read-out: PIM2 IC50): < 1 µM
IC50 (Pim3 kinase; read-out: PIM3 IC50): < 1 µM
IC50 (Pim1 kinase; read-out: PIM1 IC50): < 1 µM

CC(C)NC(=O)c1ccc(F)c(-c2ccc(N)c(C(=O)Nc3cnccc3N3CC[C@@H](O)[C@H](N)C3)n2)c1 [Example 671, 3-Amino-6-(2-fluoro-5-isopropylcarbamoyl-phenyl)-pyridine-2-carboxylic acid (3-amino-4-hydroxy-3,4,5,6-tetra-hydro-2H-[1,4′]bipyridinyl-3′-yl)-amide]
IC50 (Pim2 kinase; read-out: PIM2 IC50): < 1 µM
IC50 (Pim3 kinase; read-out: PIM3 IC50): < 1 µM
IC50 (Pim1 kinase; read-out: PIM1 IC50): < 1 µM

N[C@H]1CCCN(c2ccncc2NC(=O)c2nc(-c3ccccc3F)ccc2F)C1 [Example 571, 3-Fluoro-6-(2-fluoro-phenyl)-pyridine-2-carboxylic acid (3-amino-3,4,5,6-tetrahydro-2H-[1,4′]bipyridinyl-3′-yl)-amide]
IC50 (Pim2 kinase; read-out: PIM2 IC50): < 1 µM
IC50 (Pim3 kinase; read-out: PIM3 IC50): < 1 µM
IC50 (Pim1 kinase; read-out: PIM1 IC50): < 1 µM

N[C@H]1C[C@@H](O)CN(c2ccncc2NC(=O)c2ccc(F)c(-c3ccccc3F)n2)C1 [Example 684, 5-Fluoro-6-(2-fluoro-phenyl)-pyridine-2-carboxylic acid (5-amino-3-hydroxy-3,4,5,6-tetra-hydro-2H-[1,4′]bipyridinyl-3′-yl)-amide]
IC50 (Pim2 kinase; read-out: PIM2 IC50): < 1 µM
IC50 (Pim3 kinase; read-out: PIM3 IC50): < 1 µM
IC50 (Pim1 kinase; read-out: PIM1 IC50): < 1 µM

Nc1ccc(-c2c(F)cccc2F)nc1C(=O)Nc1cnccc1N1CCCCCC1 [Example 169, 3-Amino-6-(2,6-difluoro-phenyl)-pyridine-2-carboxylic acid (4-azepan-1-yl-pyridin-3-yl)-amide]
IC50 (Pim2 kinase; read-out: IC50 (μM) PIM2): < 1 µM
IC50 (Pim3 kinase; read-out: IC50 (μM) PIM3): < 1 µM
IC50 (Pim1 kinase; read-out: IC50 (μM) PIM1): < 1 µM

Nc1cc(F)c(-c2ccccc2)nc1C(=O)Nc1cnccc1N1CCC[C@H](N)C1 [Example 499, 3-Amino-5-fluoro-6-phenyl-pyridine-2-carboxylic acid (3-amino-3,4,5,6-tetrahydro-2H-[1,4′]bipyridinyl-3′-yl)-amide]
IC50 (Pim2 kinase; read-out: IC50 (μM) PIM2): < 1 µM
IC50 (Pim3 kinase; read-out: IC50 (μM) PIM3): < 1 µM
IC50 (Pim1 kinase; read-out: IC50 (μM) PIM1): < 1 µM

Nc1ccc(-c2ccc(S(N)(=O)=O)cc2)nc1C(=O)Nc1cnccc1N1CCC[C@H](N)C1 [Example 480, 3-Amino-6-(4-sulfamoyl-phenyl)-pyridine-2-carboxylic acid (3-amino-3,4,5,6-tetrahydro-2H-[1,4′]bipyridinyl-3′-yl)-amide]
IC50 (Pim2 kinase; read-out: IC50 (μM) PIM2): < 1 µM
IC50 (Pim3 kinase; read-out: IC50 (μM) PIM3): < 1 µM
IC50 (Pim1 kinase; read-out: IC50 (μM) PIM1): < 1 µM

CC(C)Oc1ccc(F)c(-c2ccc(N)c(C(=O)Nc3cnccc3N3CC[C@@H](N)[C@H](O)C3)n2)c1F (stereo in doubt) [Example 667, 3-Amino-6-(2,6-difluoro-3-isopropoxy-phenyl)-pyridine-2-carboxylic acid (4-amino-3-hydroxy-3,4,5,6-tetrahydro-2H-[1,4′]bipyridinyl-3′-yl)-amide]
IC50 (Pim2 kinase; read-out: PIM2 IC50): < 1 µM
IC50 (Pim3 kinase; read-out: PIM3 IC50): < 1 µM
IC50 (Pim1 kinase; read-out: PIM1 IC50): < 1 µM

Nc1ccc(-c2ccc(Cl)cn2)nc1C(=O)Nc1cnccc1N1CCC[C@H](N)C1 [Example 713, 5-Amino-5′-chloro-[2,2′]bi-pyridinyl-6-carboxylic acid (3-amino-3,4,5,6-tetrahydro-2H-[1,4′]bipyridinyl-3′-yl)-amide]
IC50 (Pim2 kinase; read-out: PIM2 IC50): < 1 µM
IC50 (Pim3 kinase; read-out: PIM3 IC50): < 1 µM
IC50 (Pim1 kinase; read-out: PIM1 IC50): < 1 µM

CCOc1cncc(-c2ccc(N)c(C(=O)Nc3cnccc3N3CCC[C@H](N)C3)n2)n1 [Example 749, 3-Amino-6-(6-ethoxy-pyrazin-2-yl)-pyridine-2-carboxylic acid (3-amino-3,4,5,6-tetrahydro-2H-[1,4′]bipyridinyl-3′-yl)-amide]
IC50 (Pim2 kinase; read-out: PIM2 IC50): < 1 µM
IC50 (Pim3 kinase; read-out: PIM3 IC50): < 1 µM
IC50 (Pim1 kinase; read-out: PIM1 IC50): < 1 µM

COc1cncc(-c2ccncc2NC(=O)c2nc(-c3ccccc3F)ccc2N)c1 [Example 609, 3-amino-6-(2-fluorophenyl)-N-(5-methoxy-3,4′-bipyridin-3′-yl)pyridine-2-carboxamide]
IC50 (Pim2 kinase; read-out: PIM2 IC50): < 1 µM
IC50 (Pim3 kinase; read-out: PIM3 IC50): < 1 µM
IC50 (Pim1 kinase; read-out: PIM1 IC50): < 1 µM

Cc1nc(-c2ccc(N)c(C(=O)Nc3cnccc3N3CCC[C@H](N)C3)n2)ccc1F [Example 708, 5-Amino-5′-fluoro-6′-methyl-[2,2′]bipyridinyl-6-carboxylic acid (3-amino-3,4,5,6-tetra-hydro-2H-[1,4′]bipyridinyl-3′-yl)-amide]
IC50 (Pim2 kinase; read-out: PIM2 IC50): < 1 µM
IC50 (Pim3 kinase; read-out: PIM3 IC50): < 1 µM
IC50 (Pim1 kinase; read-out: PIM1 IC50): < 1 µM

CC1CC(N)CN(c2ccncc2NC(=O)c2nc(-c3c(F)cccc3F)ccc2N)C1 (stereo not drawn) [Example 288, 3-Amino-6-(2,6-difluoro-phenyl)-pyridine-2-carboxylic acid (3-amino-5-methyl-3,4,5,6-tetrahydro-2H-[1,4′]bipyridinyl-3′-yl)-amide]
IC50 (Pim2 kinase; read-out: IC50 (μM) PIM2): < 1 µM
IC50 (Pim3 kinase; read-out: IC50 (μM) PIM3): < 1 µM
IC50 (Pim1 kinase; read-out: IC50 (μM) PIM1): < 1 µM

N#CCc1cccc(-c2ccc(N)c(C(=O)Nc3cnccc3N3CCC[C@H](N)C3)n2)c1 [Example 457, 3-Amino-6-(3-cyanomethyl-phenyl)-pyridine-2-carboxylic acid (3-amino-3,4,5,6-tetrahydro-2H-[1,4′]bipyridinyl-3′-yl)-amide]
IC50 (Pim2 kinase; read-out: IC50 (μM) PIM2): < 1 µM
IC50 (Pim3 kinase; read-out: IC50 (μM) PIM3): < 1 µM
IC50 (Pim1 kinase; read-out: IC50 (μM) PIM1): < 1 µM

Nc1cnc(-c2ccccc2F)nc1C(=O)Nc1cnccc1N1CC[C@@H](O)[C@H](N)C1 (stereo in doubt) [Example 662, 5-Amino-2-(2-fluoro-phenyl)-pyrimidine-4-carboxylic acid (3-amino-4-hydroxy-3,4,5,6-tetrahydro-2H-[1,4′]bi-pyridinyl-3′-yl)-amide]
IC50 (Pim2 kinase; read-out: PIM2 IC50): < 1 µM
IC50 (Pim3 kinase; read-out: PIM3 IC50): < 1 µM
IC50 (Pim1 kinase; read-out: PIM1 IC50): < 1 µM

CCCOc1cncc(-c2nc(C(=O)Nc3cnccc3N3CCC[C@H](N)C3)c(N)cc2F)n1 [Example 738, 3-Amino-5-fluoro-6-(6-propoxy-pyrazin-2-yl)-pyridine-2-carboxylic acid (3-amino-3,4,5,6-tetrahydro-2H-[1,4′]bi-pyridinyl-3′-yl)-amide]
IC50 (Pim2 kinase; read-out: PIM2 IC50): < 1 µM
IC50 (Pim3 kinase; read-out: PIM3 IC50): < 1 µM
IC50 (Pim1 kinase; read-out: PIM1 IC50): < 1 µM

COc1nc(-c2ccc(N)c(C(=O)Nc3cnccc3N3CCC[C@H](N)C3)n2)ccc1N [Example 705, 5,5′-Diamino-6′-methoxy-[2,2′]bipyridinyl-6-carboxylic acid (3-amino-3,4,5,6-tetra-hydro-2H-[1,4′]bipyridinyl-3′-yl)-amide]
IC50 (Pim2 kinase; read-out: PIM2 IC50): < 1 µM
IC50 (Pim3 kinase; read-out: PIM3 IC50): < 1 µM
IC50 (Pim1 kinase; read-out: PIM1 IC50): < 1 µM

CS(=O)(=O)c1ccc(N2CCC(N)CC2)c(NC(=O)c2nccnc2N)c1 [Example 234, 3-amino-N-[2-(4-aminopiperidin-1-yl)-5-(methylsulfonyl)phenyl]-pyrazine-2-carboxamide]
IC50 (Pim2 kinase; read-out: IC50 (μM) PIM2): > 25 µM
IC50 (Pim3 kinase; read-out: IC50 (μM) PIM3): 10 to 25 µM
IC50 (Pim1 kinase; read-out: IC50 (μM) PIM1): 1 to 10 µM

COC1CCN(c2ccncc2NC(=O)c2nc(-c3c(F)cccc3F)ccc2N)CC1N (stereo not drawn) [Example 301, 3-Amino-6-(2,6-difluoro-phenyl)-pyridine-2-carboxylic acid (3-amino-4-methoxy-3,4,5,6-tetrahydro-2H-[1,4′]bi-pyridinyl-3′-yl)-amide]
IC50 (Pim2 kinase; read-out: IC50 (μM) PIM2): < 1 µM
IC50 (Pim3 kinase; read-out: IC50 (μM) PIM3): < 1 µM
IC50 (Pim1 kinase; read-out: IC50 (μM) PIM1): < 1 µM

Nc1ccc(-c2nc(C(=O)Nc3cnccc3N3CCC[C@H](N)C3)c(N)cc2F)cn1 [Example 514, 5,6′-Diamino-3-fluoro-[2,3′]bi-pyridinyl-6-carboxylic acid (3-amino-3,4,5,6-tetrahydro-2H-[1,4′]bipyridinyl-3′-yl)-amide]
IC50 (Pim2 kinase; read-out: IC50 (μM) PIM2): < 1 µM
IC50 (Pim3 kinase; read-out: IC50 (μM) PIM3): < 1 µM
IC50 (Pim1 kinase; read-out: IC50 (μM) PIM1): < 1 µM

CC(C)Oc1ccc(F)c(-c2ncc(N)c(C(=O)Nc3cnccc3N3CCC[C@H](N)C3)n2)c1 [Example 541, 5-Amino-2-(2-fluoro-5-isopropoxy-phenyl)-pyrimidine-4-carboxylic acid (3-amino-3,4,5,6-tetrahydro-2H-[1,4′]bi-pyridinyl-3′-yl)-amide]
IC50 (Pim2 kinase; read-out: PIM2 IC50): < 1 µM
IC50 (Pim3 kinase; read-out: PIM3 IC50): < 1 µM
IC50 (Pim1 kinase; read-out: PIM1 IC50): < 1 µM

Nc1ccc(-c2ccccc2)nc1C(=O)Nc1cnccc1N1C[C@@H](N)C[C@@H](F)C1 [Example 578, 3-Amino-6-phenyl-pyridine-2-carboxylic acid (3-amino-5-fluoro-3,4,5,6-tetrahydro-2H-[1,4′]bipyridinyl-3′-yl)-amide]
IC50 (Pim2 kinase; read-out: PIM2 IC50): < 1 µM
IC50 (Pim3 kinase; read-out: PIM3 IC50): < 1 µM
IC50 (Pim1 kinase; read-out: PIM1 IC50): < 1 µM

Cc1cccc(-c2ccc(N)c(C(=O)Nc3cnccc3N3CCC[C@H](N)C3)n2)n1 [Example 726, 5-Amino-6′-methyl-[2,2′]bi-pyridinyl-6-carboxylic acid (3-amino-3,4,5,6-tetrahydro-2H-[1,4′]bipyridinyl-3′-yl)-amide]
IC50 (Pim2 kinase; read-out: PIM2 IC50): < 1 µM
IC50 (Pim3 kinase; read-out: PIM3 IC50): < 1 µM
IC50 (Pim1 kinase; read-out: PIM1 IC50): < 1 µM

CCOc1cncc(-c2nc(C(=O)Nc3cnccc3N3CCC[C@H](N)C3)c(N)cc2F)n1 [Example 740, 3-Amino-6-(6-ethoxy-pyrazin-2-yl)-5-fluoro-pyridine-2-carboxylic acid (3-amino-3,4,5,6-tetrahydro-2H-[1,4′]bi-pyridinyl-3′-yl)-amide]
IC50 (Pim2 kinase; read-out: PIM2 IC50): < 1 µM
IC50 (Pim3 kinase; read-out: PIM3 IC50): < 1 µM
IC50 (Pim1 kinase; read-out: PIM1 IC50): < 1 µM

Cc1cc(-c2ccncc2NC(=O)c2nc(-c3ccccc3F)ccc2N)cc(N)n1 [Example 624, 3-amino-N-(2′-amino-6′-methyl-4,4′-bipyridin-3-yl)-6-(2-fluorophenyl)pyridine-2-carboxamide]
IC50 (Pim2 kinase; read-out: PIM2 IC50): < 1 µM
IC50 (Pim3 kinase; read-out: PIM3 IC50): < 1 µM
IC50 (Pim1 kinase; read-out: PIM1 IC50): < 1 µM

From US20140249135A1, “PIM KINASE INHIBITORS AND METHODS OF THEIR USE” (NOVARTIS AG, priority 2007, published 2014)
